Test results reported in ChEMBL document CHEMBL1146270, “Identification of potent and selective TACE inhibitors via the S1 pocket” (Bioorg Med Chem Lett, 2007).
pIC50: −log10 of the molar value.

Experiments:
Interstitial collagenase = target: T1, Interstitial collagenase (Homo sapiens, UniProt P03956); test: Inhibition of MMP1
T1 sequence (P03956 whole entry): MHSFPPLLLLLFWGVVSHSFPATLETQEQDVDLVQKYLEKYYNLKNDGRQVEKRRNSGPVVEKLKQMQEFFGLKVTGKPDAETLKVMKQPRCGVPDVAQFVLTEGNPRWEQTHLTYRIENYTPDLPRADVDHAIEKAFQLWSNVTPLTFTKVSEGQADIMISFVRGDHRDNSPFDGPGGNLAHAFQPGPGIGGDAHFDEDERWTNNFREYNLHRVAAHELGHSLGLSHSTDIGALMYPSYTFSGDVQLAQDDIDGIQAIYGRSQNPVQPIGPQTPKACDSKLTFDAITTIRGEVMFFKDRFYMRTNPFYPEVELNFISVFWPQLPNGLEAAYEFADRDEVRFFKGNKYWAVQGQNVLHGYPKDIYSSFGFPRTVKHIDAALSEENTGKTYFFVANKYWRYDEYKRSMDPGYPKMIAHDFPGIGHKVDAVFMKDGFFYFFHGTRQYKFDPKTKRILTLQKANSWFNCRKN

[1] = target: 72 kDa type IV collagenase (Homo sapiens, UniProt P08253); test: Inhibition of MMP2
Stromelysin-1 = Stromelysin-1 (Homo sapiens, UniProt P08254); test: Inhibition of MMP3
[2] = target: Matrix metalloproteinase-9 (Homo sapiens, UniProt P14780); test: Inhibition of MMP9
Collagenase 3 = Collagenase 3 (Homo sapiens, UniProt P45452)
[3] = target: T2, Disintegrin and metalloproteinase domain-containing protein 17 (Homo sapiens, UniProt P78536); test: Inhibition of TACE
[4] = target: Matrix metalloproteinase-14 (Homo sapiens, UniProt P50281); test: Inhibition of MMP14
[5] = target: T2, Disintegrin and metalloproteinase domain-containing protein 17
Description: Inhibition of TACE in human whole blood assay

Matrix metalloproteinase-9, sequence (P14780 whole entry): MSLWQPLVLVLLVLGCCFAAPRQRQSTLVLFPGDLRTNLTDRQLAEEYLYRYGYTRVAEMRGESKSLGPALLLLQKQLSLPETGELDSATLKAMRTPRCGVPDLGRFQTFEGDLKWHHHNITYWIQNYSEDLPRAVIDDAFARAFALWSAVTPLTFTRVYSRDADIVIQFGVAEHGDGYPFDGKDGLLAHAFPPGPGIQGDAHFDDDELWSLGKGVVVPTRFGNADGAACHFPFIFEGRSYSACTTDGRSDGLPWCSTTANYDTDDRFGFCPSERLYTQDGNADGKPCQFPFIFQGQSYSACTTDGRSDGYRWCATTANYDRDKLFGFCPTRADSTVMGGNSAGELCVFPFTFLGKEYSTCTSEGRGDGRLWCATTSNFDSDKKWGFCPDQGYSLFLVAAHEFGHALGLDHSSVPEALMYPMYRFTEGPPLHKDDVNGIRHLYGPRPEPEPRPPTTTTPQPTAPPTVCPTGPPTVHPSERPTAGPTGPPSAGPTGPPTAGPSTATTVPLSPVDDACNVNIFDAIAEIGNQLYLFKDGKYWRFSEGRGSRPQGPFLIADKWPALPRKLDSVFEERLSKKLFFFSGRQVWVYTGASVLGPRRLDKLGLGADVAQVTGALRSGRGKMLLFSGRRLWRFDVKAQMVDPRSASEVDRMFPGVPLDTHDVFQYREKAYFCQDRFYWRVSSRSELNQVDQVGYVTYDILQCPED
T2 sequence (P78536 whole entry, the tested form may be a part): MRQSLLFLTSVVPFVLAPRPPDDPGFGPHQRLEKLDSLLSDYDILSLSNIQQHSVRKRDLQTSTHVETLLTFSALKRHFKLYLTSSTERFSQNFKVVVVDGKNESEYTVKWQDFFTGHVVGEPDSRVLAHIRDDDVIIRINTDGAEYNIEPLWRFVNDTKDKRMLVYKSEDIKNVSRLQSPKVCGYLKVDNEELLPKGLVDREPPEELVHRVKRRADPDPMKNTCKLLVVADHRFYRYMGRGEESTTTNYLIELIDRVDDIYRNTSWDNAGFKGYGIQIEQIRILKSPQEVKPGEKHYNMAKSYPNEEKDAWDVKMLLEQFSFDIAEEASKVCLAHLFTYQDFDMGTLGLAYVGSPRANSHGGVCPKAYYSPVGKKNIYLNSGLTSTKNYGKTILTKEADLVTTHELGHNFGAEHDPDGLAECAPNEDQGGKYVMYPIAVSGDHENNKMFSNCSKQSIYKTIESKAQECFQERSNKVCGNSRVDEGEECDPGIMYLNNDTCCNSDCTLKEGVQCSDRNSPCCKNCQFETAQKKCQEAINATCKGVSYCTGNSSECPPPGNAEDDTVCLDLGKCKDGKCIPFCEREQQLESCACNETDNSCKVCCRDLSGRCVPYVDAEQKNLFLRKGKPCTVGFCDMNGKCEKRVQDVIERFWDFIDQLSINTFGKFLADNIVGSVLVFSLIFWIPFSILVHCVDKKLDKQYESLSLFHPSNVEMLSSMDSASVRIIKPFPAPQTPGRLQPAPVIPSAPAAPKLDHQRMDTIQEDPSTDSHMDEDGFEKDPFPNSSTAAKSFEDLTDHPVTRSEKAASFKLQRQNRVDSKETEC
72 kDa type IV collagenase, sequence (P08253 whole entry): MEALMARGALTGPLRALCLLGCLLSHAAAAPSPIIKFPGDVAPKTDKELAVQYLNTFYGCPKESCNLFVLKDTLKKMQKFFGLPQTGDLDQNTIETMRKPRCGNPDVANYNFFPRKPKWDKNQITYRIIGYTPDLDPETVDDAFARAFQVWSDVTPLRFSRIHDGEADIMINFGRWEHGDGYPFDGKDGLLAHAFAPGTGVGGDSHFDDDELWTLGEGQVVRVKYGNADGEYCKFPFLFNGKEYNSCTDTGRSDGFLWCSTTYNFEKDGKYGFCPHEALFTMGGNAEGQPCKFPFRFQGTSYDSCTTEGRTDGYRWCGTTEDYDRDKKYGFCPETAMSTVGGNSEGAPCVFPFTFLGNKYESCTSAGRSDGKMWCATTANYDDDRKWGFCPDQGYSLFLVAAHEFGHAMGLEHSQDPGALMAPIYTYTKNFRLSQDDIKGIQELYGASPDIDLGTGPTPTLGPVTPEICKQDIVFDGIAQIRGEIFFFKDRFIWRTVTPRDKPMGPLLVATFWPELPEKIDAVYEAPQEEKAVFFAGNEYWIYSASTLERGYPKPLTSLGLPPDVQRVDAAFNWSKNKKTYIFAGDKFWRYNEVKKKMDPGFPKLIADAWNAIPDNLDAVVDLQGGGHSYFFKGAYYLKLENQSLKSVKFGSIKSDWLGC
Stromelysin-1, sequence (P08254 whole entry): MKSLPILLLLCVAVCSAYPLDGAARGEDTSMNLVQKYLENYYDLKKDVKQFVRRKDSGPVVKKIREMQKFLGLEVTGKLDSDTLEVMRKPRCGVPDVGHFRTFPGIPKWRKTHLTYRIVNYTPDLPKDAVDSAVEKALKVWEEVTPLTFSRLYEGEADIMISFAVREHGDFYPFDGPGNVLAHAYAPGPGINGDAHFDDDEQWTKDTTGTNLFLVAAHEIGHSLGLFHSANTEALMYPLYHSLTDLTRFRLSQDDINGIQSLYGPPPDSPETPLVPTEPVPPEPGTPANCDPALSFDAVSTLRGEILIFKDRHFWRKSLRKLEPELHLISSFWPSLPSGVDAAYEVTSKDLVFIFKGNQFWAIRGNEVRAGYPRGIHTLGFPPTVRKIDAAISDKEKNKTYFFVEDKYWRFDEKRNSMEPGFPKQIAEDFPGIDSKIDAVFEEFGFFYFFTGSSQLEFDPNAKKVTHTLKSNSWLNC

SMILES | pIC50 (Interstitial collagenase) | pIC50 [1] | pIC50 (Stromelysin-1) | pIC50 [2] | pIC50 (Collagenase 3) | pIC50 [3] | pIC50 [4] | pIC50 [5]
Cc1cc(COc2ccc([C@]3(C)CCN([C@H](C)C(=O)NO)C3=O)cc2)c2ccccc2n1 | 4.52 | 5.69 | 6.85 | 4.99 | 5.85 | – | – | –
CC#CCOc1ccc(S(=O)(=O)CC2(C(=O)NO)CCN(S(=O)(=O)N(C)C)CC2)cc1 | – | 7.21 | – | – | 6.64 | 8.74 | – | –
CC#CCOc1ccc(S(=O)(=O)CC2(C(=O)NO)CCN(S(=O)(=O)N3CCOCC3)CC2)cc1 | – | 7.29 | – | – | 6.71 | 9.00 | – | –
CC#CCOc1ccc(S(=O)(=O)CC2(C(=O)NO)CCN(S(=O)(=O)N3CCCCC3)CC2)cc1 | – | 7.29 | – | – | 6.84 | 8.92 | – | –
CC#CCOc1ccc(S(=O)(=O)CC2(C(=O)NO)CCN(S(=O)(=O)N3CCN(C(C)=O)CC3)CC2)cc1 | – | 7.70 | – | – | 6.98 | 8.82 | – | –
CC#CCOc1ccc(S(=O)(=O)CC2(C(=O)NO)CCN(S(=O)(=O)N3CCC[C@H]3COC)CC2)cc1 | – | 7.24 | – | – | 6.72 | 8.82 | – | –
CC#CCOc1ccc(S(=O)(=O)CC2(C(=O)NO)CCN(S(=O)(=O)N3CCC[C@@H]3CO)CC2)cc1 | – | 6.76 | – | – | 6.45 | 8.85 | – | –
CC#CCOc1ccc(S(=O)(=O)CC2(C(=O)NO)CCN(Cc3c(Cl)cncc3Cl)CC2)cc1 | 5.57 | 6.26 | – | 6.04 | 6.59 | – | 4.83 | –
CC#CCOc1ccc(S(=O)(=O)CC2(C(=O)NO)CCN(S(=O)(=O)C(C)(C)C)CC2)cc1 | – | 7.14 | – | – | 6.62 | > 9.00 | – | –
CC#CCOc1ccc(S(=O)(=O)CC2(C(=O)NO)CCN(S(=O)(=O)CC3CCCCC3)CC2)cc1 | – | 7.96 | – | – | 7.14 | > 9.00 | – | –
CC#CCOc1ccc(S(=O)(=O)CC2(C(=O)NO)CCN(S(=O)(=O)CCN3CCOCC3)CC2)cc1 | – | 7.43 | – | – | 7.37 | 8.66 | – | –
CC#CCOc1ccc(S(=O)(=O)CC2(C(=O)NO)CCN(S(=O)(=O)C(C)CN3CCOCC3)CC2)cc1 (stereo unspecified) | – | 7.43 | – | – | 6.89 | 8.85 | – | –
CC#CCOc1ccc(S(=O)(=O)CC2(C(=O)NO)CCN(S(=O)(=O)C3CCCC3)CC2)cc1 | – | 7.27 | – | – | 6.81 | 8.89 | – | –
CC#CCOc1ccc(S(=O)(=O)CC2(C(=O)NO)CCN(S(=O)(=O)C3CCCCC3)CC2)cc1 | – | 8.40 | – | – | 7.61 | 8.55 | – | –
CC#CCOc1ccc(S(=O)(=O)CC2(C(=O)NO)CCN(c3ccccn3)CC2)cc1 | – | 7.20 | – | – | 6.69 | 8.88 | – | –
CC#CCOc1ccc(S(=O)(=O)CC2(C(=O)NO)CCN(c3ccncc3)CC2)cc1 | – | 5.69 | – | – | 5.69 | 8.25 | – | –

SMILES | pIC50 (Interstitial collagenase) | pIC50 [1] | pIC50 (Stromelysin-1) | pIC50 [2] | pIC50 (Collagenase 3) | pIC50 [3] | pIC50 [4] | pIC50 [5]
CC#CCOc1ccc(S(=O)(=O)CC2(C(=O)NO)CCN(c3nc4ccccc4n3C)CC2)cc1 | – | 6.75 | – | – | 6.78 | > 9.00 | – | –
CC#CCOc1ccc(S(=O)(=O)CC2(C(=O)NO)CCN(S(=O)(=O)c3c(C)noc3C)CC2)cc1 | – | 6.18 | – | – | 5.64 | – | 4.62 | –
CC#CCOc1ccc(S(=O)(=O)CC2(C(=O)NO)CCN(S(=O)(=O)c3cn(C)c(C)n3)CC2)cc1 | – | 7.72 | – | – | 6.83 | 8.52 | – | –
CC#CCOc1ccc(S(=O)(=O)CC2(C(=O)NO)CCN(S(=O)(=O)c3ccc(Cl)s3)CC2)cc1 | – | 7.48 | – | – | – | 8.15 | – | –
CC#CCOc1ccc(S(=O)(=O)CC2(C(=O)NO)CCN(S(=O)(=O)c3cc(Cl)sc3Cl)CC2)cc1 | – | 7.66 | – | – | 7.64 | > 9.00 | – | –
CC#CCOc1ccc(S(=O)(=O)CC2(C(=O)NO)CCN(C(=O)c3ccncc3)CC2)cc1 | – | – | – | – | 7.67 | 8.59 | 6.23 | –
CC#CCOc1ccc(S(=O)(=O)N2CCSC(C)(C)C2C(=O)NO)cc1 (stereo unspecified) | 6.70 | – | – | – | – | 8.05 | – | –
CC#CCOc1ccc(S(=O)(=O)CC2(C(=O)NO)CCN(S(=O)(=O)c3nc(C)sc3C)CC2)cc1 | – | 7.49 | – | – | 7.42 | > 9.00 | – | –
CC#CCOc1ccc(S(=O)(=O)CC2(C(=O)NO)CCN(S(=O)(=O)N3CCCC3)CC2)cc1 | – | 7.51 | – | – | 6.93 | 9.00 | – | –
CC#CCOc1ccc(S(=O)(=O)CC2(C(=O)NO)CCN(C(=O)c3c(Cl)cncc3Cl)CC2)cc1 | – | 6.74 | – | – | 6.35 | 8.77 | – | 5.89
CC#CCOc1ccc(S(=O)(=O)CC2(C(=O)NO)CCN(S(=O)(=O)Cc3ccncc3)CC2)cc1 | – | 7.09 | – | – | 6.53 | 8.70 | – | –
CC#CCOc1ccc(S(=O)(=O)CC2(C(=O)NO)CCN(S(=O)(=O)C(CC)CC)CC2)cc1 | – | 7.24 | – | – | 6.87 | 8.92 | – | –
CC#CCOc1ccc(S(=O)(=O)CC2(C(=O)NO)CCN(S(=O)(=O)C3CC3)CC2)cc1 | – | 6.79 | – | – | 5.94 | 8.80 | – | –
CC#CCOc1ccc(S(=O)(=O)CC2(C(=O)NO)CCN(c3nc4ccccc4o3)CC2)cc1 | – | 7.40 | – | – | 7.25 | 8.96 | – | –
CC#CCOc1ccc(S(=O)(=O)CC2(C(=O)NO)CCN(S(=O)(=O)c3c(C)nn(C)c3C)CC2)cc1 | – | 7.00 | – | – | 6.41 | > 9.00 | – | –
Cc1cc(COc2ccc(S(=O)(=O)CC(CC3CCN(C(C)(C)C)CC3)N(O)C=O)cc2)c2ccccc2n1 (stereo unspecified) | – | 5.30 | 5.82 | 4.05 | 5.40 | 7.92 | – | –
